Measurements from patent publication US20200341000A1, “METHOD OF SCREENING COMPOUNDS FOR TREATING CNS DISORDERS” (SAGE THERAPEUTICS, INC., priority 2017, published 2020).

Tests used:
[1] = system: GT1-7 cells (co-express mPRα and GABAARs), β3 S408/9 phosphorylation; assay: Immunoblot of β3 S408/9 phosphorylation in GT1-7 cells; type: cell-based; settings: 100 nM, 15 min; n=6
Protocol: GT1-7 cells that co-express mPRα and GABAARs were used to measure the level of phosphorylation at S408/9 position of β3 subunit. Quantitative PCR analysis indicated the enrichment of the mPRα mRNA in GT1-7 cells (FIG. 15A upper, figure taken from Thomas and Pang 2012). Expression of mPRα was confirmed using western blotting. 10 and 15 μg of SDS-soluble extracts from GT1-7 cells were immunoblotted with an mPRα specific antibody (FIG. 15A lower).
GT1-7 cells were treated with 100 nM AllO or P4 for 15 min and immunoblotted with antibodies specifically recognizing β3, actin, and […] β3 subunit (pS408/9). The ratio of pS408/9 β3 subunit immunoreactivity were then normalized to levels seen in vehicle treated to controls, n=6.

[2] = system: GABAA receptor α4 subunit S443 phosphorylation; assay: Immunoblot of α4 S443 phosphorylation in hippocampal slices; type: cell-based, mice; settings: 100 SGE-516 for 5 min
Protocol: Treatment of hippocampal slices with SGE-516 increased the phosphorylation of S408/9 measured using pS408/9 antibodies. To produce antibodies specific for phosphorylated S443, rabbits were injected with a synthetic peptide corresponding to residues […] of the murine α4 subunit in which the serine residue corresponding to S443 was chemically phosphorylated; […]. Hippocampal slices were treated with vehicle (Con), or SGE-516 for 20 min. Slices were immunoblotted with pS408/9, β3, or actin antibodies. The ratio of pS408/9/β3 immunoreactivity was then normalized to control slices (100%=the line).
Affinity purified pS443 was used to immunoblot varying concentrations of the immunizing phosphor-peptide (PP). pS443 was used to immunoblot extracts of hippocampal slices treated without preadsorption (0), preadsorbed with the dephosphorylated (DP), or phosphorylated antigen (PP). […] Moreover, the detection of this band was blocked by the phospho- but not the dephospho-antigen (FIG. 7B).
Hippocampal slices were treated with vehicle (Con) or 100 SGE-516 for 5 min and then immunoblotted with pS443 and α4 antibodies as indicated. pS443 immunoreactivity in hippocampal slices was increased by exposure to SGE-516, while total α4 levels were unaffected (FIG. 7C).

[3] = system: tonic current in DGGCs (β3 S408/9A mutant); assay: Sustained effect on tonic current in DGGCs from S408/9A mice; type: cell-based; settings: 100 nM, slices from S408/9A mice
[4] = system: plasma membrane GABAARs containing the α4 and β3 subunits (S408/9A mutant); assay: Biotinylation, surface/total GABAAR subunits in hippocampal slices of S408/9A mice; type: cell-based; settings: 100 nM, 20 min
Protocol: Consistent with the examples above, hippocampal slices from WT and S408/9A mice were treated for 20 min with 100 nM SGE-516 or vehicle (Con) and subjected to biotinylation followed by immunoblotting with β3 and α4 subunit antibodies. The ratio of surface/total (S/T) immunoreactivity was then normalized to levels seen in control (100%).

[5] = system: sIPSCs in dentate gyms granule cells (DGGCs); assay: sIPSCs in DGGCs after 15 min exposure and >30 min wash; type: cell-based, mice
Protocol: For tonic current measurements, an all-points histogram was plotted for a 10 s period before and during 100 μM picrotoxin application, once the response reached a plateau level. Recordings with unstable baselines were discarded. Fitting the histogram with a Gaussian distribution gave the mean baseline current amplitude and the difference between the amplitudes before and during picrotoxin was considered to be the tonic current. The negative section of the all-points histogram which corresponds to the inward IPSCs was not fitted with a Gaussian distribution (Kretschmannova et al., 2013; Nusser and Mody, 2002). Series resistance and whole-cell capacitance were continually monitored and compensated throughout the course of the experiment. Recordings were eliminated from data analysis if series resistance increased by >20%. Spontaneous inhibitory post-synaptic currents (sIPSCs) were analyzed using the mini-analysis software (version 5.6.4; Synaptosoft, Decatur, Ga.). Minimum threshold detection was set to 3 times the value of baseline noise signal. […] Only recordings with a minimum of 200 events fitting these criteria were analyzed. sIPSCs amplitude, and frequency from each experimental condition was pooled and expressed as mean±SEM. To measure sIPSC decay, 100 consecutive events were averaged and the decay was fitted to a double exponential and the weighted decay constant (tw) was determined. […]

[6] = system: phosphorylation of S443 (α4) and S408/9 (β3); assay: Phosphorylation of GABAAR subunits in brain after IP injection; type: in vivo, mice; settings: 5 mg/kg IP, 30 min after treatment
Protocol: C57/B16 mice injected with SGE-516 (5 mg/kg IP), or vehicle. 30 min after the treatment mice were sacrificed by microwave irradiation. SDS-soluble hippocampal extracts were then immunoblotted with pS443, α4, pS408/9, or β3 subunit antibodies.

SMILES | S408/9 phosphorylation (pS408/9/β3) in GT1-7 cells [1] | pS443 immunoreactivity [2] | total α4 levels [2] | tonic current in DGGCs after incubation and extensive washout [3] | increase of plasma membrane levels of GABAARs containing α4 and β3 subunits [4] | enhancement of sIPSC amplitude with GFX ([5]; 100 nM SGE-516 plus GFX) | sIPSC amplitude after exposure and wash ([5]; 100 nM, 15 min, washed >30 min) | phosphorylation of S443 and S408/9 in the brains [6]
CC(=O)[C@H]1CC[C@H]2[C@@H]3CC[C@H]4C[C@H](O)CC[C@]4(C)[C@H]3CC[C@]12C [ALLO, Allopregnanolone] | increase | – | – | – | – | – | – | –
C[C@@]1(O)CC[C@H]2[C@H](CC[C@@H]3[C@@H]2CC[C@]2(C)[C@@H](C(=O)Cn4nccn4)CC[C@@H]32)C1 [SGE-516] | – | increased | unaffected | did not modify | not seen | significantly reduced | significantly enhanced | increased
